# The source made the active and inactive calls. The rule behind the calls is not given here.
# Assays:
# [1] = molecular target: T1, E-selectin (Homo sapiens) (UniProt P16581); assay: Reduction in human HL-60 cell adhesion in E-Selectin Fc coated plates at 0.1 to 500 uM measured after 1 hr incubation by Cell-selectin adhesion assay; type: cell-based; conditions: filed as antagonist, dose 0.1-500 µM
# T1 sequence (whole entry): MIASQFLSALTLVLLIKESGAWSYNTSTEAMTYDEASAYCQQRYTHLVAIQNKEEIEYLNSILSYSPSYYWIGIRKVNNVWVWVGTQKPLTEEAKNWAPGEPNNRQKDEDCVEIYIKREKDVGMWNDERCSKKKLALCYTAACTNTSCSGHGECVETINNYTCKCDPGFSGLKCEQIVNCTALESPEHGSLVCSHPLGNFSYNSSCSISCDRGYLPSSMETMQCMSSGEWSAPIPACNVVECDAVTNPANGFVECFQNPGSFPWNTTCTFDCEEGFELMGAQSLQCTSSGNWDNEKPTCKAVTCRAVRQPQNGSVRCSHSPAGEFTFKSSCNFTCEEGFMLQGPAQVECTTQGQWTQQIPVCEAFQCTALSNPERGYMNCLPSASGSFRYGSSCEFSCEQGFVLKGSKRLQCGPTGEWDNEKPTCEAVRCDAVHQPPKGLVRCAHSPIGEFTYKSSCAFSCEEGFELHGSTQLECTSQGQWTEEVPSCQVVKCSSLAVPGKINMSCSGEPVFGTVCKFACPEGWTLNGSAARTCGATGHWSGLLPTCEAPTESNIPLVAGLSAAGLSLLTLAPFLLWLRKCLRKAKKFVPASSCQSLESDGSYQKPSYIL
# P-selectin = molecular target: T2, P-selectin (Homo sapiens, UniProt P16109); assay: Antagonist activity at recombinant human P-selectin assessed as inhibition of P-selection binding to homodimer human PSGL-1-Fc interaction measured after 30 mins by surface plasmon resonance (SPR) spectroscopy
# T2 sequence (P16109 whole entry): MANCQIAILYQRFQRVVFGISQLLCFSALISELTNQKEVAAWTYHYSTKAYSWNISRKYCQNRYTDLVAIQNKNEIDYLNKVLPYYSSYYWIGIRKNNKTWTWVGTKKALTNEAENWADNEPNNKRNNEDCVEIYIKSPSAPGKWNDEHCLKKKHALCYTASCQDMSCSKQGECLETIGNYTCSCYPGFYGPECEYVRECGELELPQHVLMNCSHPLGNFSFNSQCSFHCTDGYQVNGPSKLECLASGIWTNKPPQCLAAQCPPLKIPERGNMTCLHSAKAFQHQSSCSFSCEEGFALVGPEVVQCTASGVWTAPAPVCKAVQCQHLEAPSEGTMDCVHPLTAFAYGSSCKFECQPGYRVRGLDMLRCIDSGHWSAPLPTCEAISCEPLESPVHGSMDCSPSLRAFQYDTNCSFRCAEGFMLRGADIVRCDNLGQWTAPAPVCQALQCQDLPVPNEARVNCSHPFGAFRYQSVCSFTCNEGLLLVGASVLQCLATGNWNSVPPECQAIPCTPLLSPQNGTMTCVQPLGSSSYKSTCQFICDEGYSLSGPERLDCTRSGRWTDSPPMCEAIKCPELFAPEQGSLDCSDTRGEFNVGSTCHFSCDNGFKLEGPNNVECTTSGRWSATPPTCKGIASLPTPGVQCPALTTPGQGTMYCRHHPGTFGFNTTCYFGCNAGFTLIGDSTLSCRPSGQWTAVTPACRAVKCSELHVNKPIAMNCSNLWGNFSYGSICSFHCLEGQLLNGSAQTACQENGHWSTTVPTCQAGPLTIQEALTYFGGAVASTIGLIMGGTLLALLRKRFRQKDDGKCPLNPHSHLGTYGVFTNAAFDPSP
# HL-60 = assay: Reduction in human HL-60 cell adhesion in E-Selectin Fc coated plates measured after 1 hr incubation by Cell-selectin adhesion assay; type: cell-based; conditions: filed as antagonist, dose 0.1-500 µM
Activity [1],IC50 (P-selectin) [µM],Compound,Activity (HL-60)
Active,290,CC(C)OC(=O)[C@H](O[C@@H]1O[C@H](CO)[C@H](OC(=O)c2ccccc2)[C@H](O[C@H](Cc2ccccc2)C(=O)O)[C@H]1OC(=O)c1ccccc1)[C@@H](O[C@@H]1O[C@@H](C)[C@@H](O)[C@@H](O)[C@@H]1O)C(=O)O[C@@H](C)CCCn1cc(CCCCC(=O)Nc2ccc(OP(=O)(O)O)cc2)nn1,–
Active,–,CC(=O)N[C@H]1[C@H]([C@H](O)[C@H](O)CO)O[C@@](O[C@H]2[C@@H](O)[C@@H](CO)O[C@@H](O[C@@H]([C@H](O[C@@H]3O[C@@H](C)[C@@H](O)[C@@H](O)[C@@H]3O)[C@H](C=O)NC(C)=O)[C@H](O)CO)[C@@H]2O)(C(=O)O)C[C@@H]1O,Dose-Dependent Effect
–,162,CC(C)OC(=O)[C@H](O[C@@H]1O[C@@H](C)[C@@H](O)[C@@H](O)[C@@H]1O)[C@@H](O[C@@H]1O[C@H](CO)[C@H](O)[C@H](O[C@H](Cc2ccccc2)C(=O)O)[C@H]1OC(=O)c1ccccc1)C(=O)OC(C)C,–

# From ChEMBL document CHEMBL5523669, “Sialyl LewisX glycomimetics bearing an extended anionic chain targeting E- and P- selectin binding sites” (Bioorg Med Chem, 2024)
